Assay results reported in US12214076B2, “Drug delivery vehicles for atherosclerosis nanomedicine” (Northwestern University, priority 2019, dated 2025).
Peptide text beside a SMILES is read from it. * marks the point of attachment. Palmitoyl = CCCCCCCCCCCCCCCC(=O)*

Legend:
[1] = system: atherosclerotic LDLR KO mice; assay: In vivo proof of concept: PA nanofiber localization in aortic root; design: species or system mouse; conditions: 24 h after intravenous injection, high fat diet 14 weeks, 6 mg kg-1 PA
Description: Mouse Model of Atherosclerosis and In Vivo Proof of Concept: LDLR-KO mice were fed a high fat “Western” diet (Teklad TD.88137) starting at 4 weeks of age. This diet consisted of 20% fat, 0.2% cholesterol, and 34% high sucrose. LDLR-KO mice fed this diet typically develop severe hypercholesterolemia (>800 mg/dL) and hypertriglyceridemia (>300 mg/dL) after only 2 weeks, and by 12 weeks on the high fat diet, atherosclerotic lesions are detected in the aortic root and aortic arch. After 14 weeks on the high fat diet, mice received intravenous injections of PA nanofibers dissolved in PBS (dorsal penile vein in males) under sterile conditions. Mice were briefly anesthetized for injection with inhaled isoflurane. After injection, mice were monitored and allowed to recover from anesthesia in a heated oxygen chamber. […] PA fluorescence was assessed with the HE CY3 filter (Zeiss filter #43) using excitation and emission wavelengths of 550-575 nm and 605-670 nm, respectively. Nuclear staining was performed with DAPI (4′,6-Diamidino-2-Phenylindole, Dilactate, ThermoFisher, Chicago, IL), and assessed with the DAPI filter (Zeiss filter #49) using excitation and emission wavelengths of 365-395 and 445-450 nm, respectively. Tissue autofluorescence was assessed with the green fluorescent protein filter (Zeiss filter #38) using excitation and emission wavelengths of 470-495 and 525-550 nm, respectively. […]

LDLR KO mice = assay: Targeting of atherosclerosis by IV injected ApoA1 PA nanofibers (Example 3); type: in vivo, mouse
Description: Mouse model of atherosclerosis: To study atherosclerosis, the LDLR KO mouse was used. LDLR KO mice are fed a high fat “western” diet (Teklad TD.88137) starting at 4 weeks of age. This diet consists of 20% fat, 0.2% cholesterol, and 34% high sucrose. LDLR KO mice fed this diet typically develop severe hypercholesterolemia (>800 mg/dL) and hypertriglyceridemia (>300 mg/dL) after only 2 weeks. By 12 weeks on the high fat diet, atherosclerotic lesions are detected in the aortic root and aortic arch on cryosections stained with Oil Red O (Sigma). Atherosclerosis was quantified in the aortic root as a percentage of the aortic root by taking the atherosclerotic area divided by the total aortic root area. Measurements were made with ImageJ software. All protocols for the animal model and procedures in this manuscript were approved by Northwestern University's Institutional Animal Care and Use Committee.
Injection of PA nanofibers: PA nanofibers were dissolved at 2-4 mg/mL concentration in room temperature phosphate buffered saline (PBS). After 14 weeks on the high fat diet, mice received intravenous injections of PA nanofiber dissolved in PBS (dorsal penile vein in males, retro-orbital injection in females) using a 31 G hypodermic insulin needle on a 0.3 mL syringe under sterile conditions and magnification (NIKON SMZ 645 Zoom Stereomicroscope). Mice were briefly anesthetized for injection with inhaled isoflurane. Mice were monitored and allowed to recover from anesthesia in a heated oxygen chamber.
Dose and concentration study: To determine the optimum concentration for targeting efficacy and safety, LDLR KO mice fed the high fat diet for 14 weeks were injected with PA nanofiber at concentrations of 1 mg/mL, 2 mg/mL, and 4 mg/mL at 8 mg/kg in PBS. Similarly, to determine the optimum dose for targeting efficacy and safety, LDLR KO mice fed the high fat diet for 14 weeks were injected at PA nanofiber doses of 8 mg/kg, 6 mg/kg, 4 mg/kg, 3.3 mg/kg, and 1.7 mg/kg at 2 mg/mL in PBS. Safety, optimum dose, and concentration for targeting was assessed by survival of the animal and fluorescent pixel quantification in the aortic root, liver, lungs, kidneys, and spleen.
Tissue processing and imaging: Mice were sacrificed and euthanized under inhaled isoflurane anesthesia by diaphragm disruption and exsanguination. Phlebotomy was performed through direct right ventricular cardiac puncture using a 1 mL syringe and 25 G needle. Perfusion was performed through left ventricular cardiac puncture with 10 mL PBS and 10 mL 10% sucrose solution. The lungs, liver, spleen, kidney, aortic root, aortic arch, and descending aorta were harvested and stored in 10% sucrose for 20 minutes. Organs and vessels were then flash-frozen in Optimal Cutting Temperature embedding medium 4583 (Tissue-Tek®) with liquid nitrogen. Frozen specimens were stored at −80° C. and cryosectioned at […]. Confocal microscopy was performed on a Nikon AIR microscope. Two sets of images were acquired with a 10× Plan Fluor NA 0.3 objective. PAs were identified through quantification of the Alexa Fluor® 546 conjugated dye with 561 nm excitation and a 600/50 nm emission filter.
Images were acquired with spectral detection and spectrally unmixed to accurately separate green autofluorescence from the red Alexa Fluor® 546 signal. Brightfield and fluorescent microscopy were performed using a Zeiss Axio Imager.A2 microscope with AxioVision software (release 4.8.2, 06-2010). All confocal and fluorescent sections were mounted with ProGold Diamond mounting media (Sigma). Slides were stained with Oil Red O to image and quantify atherosclerosis under brightfield microscopy. The elastic laminae were identified using the green fluorescent protein (GFP) filter with an exposure time of 3500 ms under 5× magnification. Nanofibers were identified in the aortic root by presence of Alexa Fluor® 546 on the Cy3 filter under 5-10× magnification, and in the internal organs under 20× magnification. […]

time post injection when fluorescent pixel analysis was not different from control non-injected mice (LDLR KO mice; aortic root): 10 to 14 days
Structure (SMILES): CCCCCCCCCCCCCCCC(=O)N[C@H](C(=O)N[C@H](C(=O)N[C@@H](C)C(=O)N[C@@H](C)C(=O)N[C@@H](CCC(=O)O)C(=O)N[C@@H](CCC(=O)O)C(=O)NCC(=O)N[C@@H](CC(=O)O)C(=O)N[C@@H](Cc1c[nH]c2ccccc12)C(=O)N[C@@H](Cc1ccccc1)C(=O)N[C@@H](CCCCN)C(=O)N[C@@H](C)C(=O)N[C@@H](Cc1ccccc1)C(=O)N[C@@H](Cc1ccc(O)cc1)C(=O)N[C@@H](CC(=O)O)C(=O)N[C@@H](CCCCN)C(=O)N[C@H](C(=O)N[C@@H](C)C(=O)N[C@@H](CCC(=O)O)C(=O)N[C@@H](CCCCN)C(=O)N[C@@H](Cc1ccccc1)C(=O)N[C@@H](CCCCN)C(=O)N[C@@H](CCC(=O)O)C(=O)N[C@@H](C)C(=O)N[C@@H](Cc1ccccc1)C(N)=O)C(C)C)C(C)C)C(C)C [ApoA1 PA] (Palmitoyl-VVAAEEGDWFKAFYDKVAEKFKEAF-NH2)
localization of nanofibers to areas of atherosclerotic plaque in the aortic root [1]: localization of the nanofibers to areas of atherosclerotic plaque
binding duration in areas of atherosclerosis (LDLR KO mice; after injection): remained localized to areas of atherosclerosis at high concentrations for two days
dose dependence of localization at the aortic root (LDLR KO mice; constant concentration 2 mg/mL): Doses of 8 mg/kg and 6 mg/kg were superior to 4 mg/kg, which was superior to 1.7 mg/kg
fluorescent pixels in aortic root, 4 mg/mL vs. 2 mg/mL (LDLR KO mice; constant dose 8 mg/kg, 24 hours after injection): no significant difference
localization in male versus female LDLR KO mice (LDLR KO mice; mouse, in vivo): no statistically significant difference in localization between the sexes
localization to areas of atherosclerosis (LDLR KO mice; within 24 hours after injection, confocal, Alexa Fluor 546): localized to areas of atherosclerosis
